Tests used:
[1] = biological target: T1, HSF-PLA2 (Homo sapiens, UniProt P14555); assay: Assay for Inhibition of HSF-PLA2 In Vitro; type: biochemical; settings: for IC50: read-out: Inhib of HSF-PLA2 IC50
T1 construct: extracellular enzyme obtained from human synovial fluid (HSF-PLA2); from tissue; host or cells: pooled human synovial fluid, added at 0.1% (v/v)
T1 sequence (P14555 21-144): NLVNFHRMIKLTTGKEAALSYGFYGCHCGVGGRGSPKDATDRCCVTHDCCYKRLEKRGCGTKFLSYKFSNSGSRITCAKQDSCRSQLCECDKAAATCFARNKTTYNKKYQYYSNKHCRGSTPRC
Experimental: Assay for Inhibition of HSF-PLA2 In Vitro
The PLA2 used in this test is the extracellular enzyme obtained from human synovial fluid (HSF-PLA2).
The optimal conditions which were developed for the assay of HSF-PLA2 inhibitors are summarized as follows. […] The reaction was initiated by the addition of HSF-PLA2 and duplicate samples of the mixture were incubated in 13×100 mm glass tubes with shaking for 30 minutes at 37° C. […] The extraction of lipids from the stopped reaction mixture was conducted by the further additions of […] of chloroform and 1 ml of water with mixing. After centrifuging, the lower chloroform phase was transferred to smaller glass tubes and the solvent was evaporated to dryness with a nitrogen stream. The extracted lipid residue was redissolved in 50 μl of a solution containing carrier oleic acid (0.2 mg/ml) of chloroform-methanol [9 to 1, v/v]). The whole lipid extract was applied to a preactivated (30 minutes at 110° C.) silica gel-impregnated glass fiber thin layer chromatography sheet (ITLC type SG sheet from Gelman Sciences, Inc., Ann Arbor, Mich.) using hexane-acetic acid (100 to 1, v/v) as the developing solvent. This TLC system rapidly (6 minutes) resolved the enzymatically released product, ^14 C-oleic acid, from the unreacted ^14 C-phospholipid substrate. The unsaturated lipids were located on the chromatogram by a brief exposure to iodine vapor. […] A control incubation of substrate in the absence of HSF-PLA2 was performed in each experiment.

[2] = test system: PLA2 Rat Paw Edema; assay: Phospholipase A2 Rat Paw Edema; type: in vivo, Lewis rats; settings: for inhibition in vivo at 30 mg/kg: Rattus norvegicus, 2 hr, read-out: % Inhib of PLA2 Rat Paw Edema 2 hr (30 mg/kg)
Experimental: Phospholipase A2 Rat Paw Edema
Representation compounds of the invention were tested in rats to determine their ability to inhibit the acute inflammatory response induced by the injection of snake venom phospholipase A2. Test compounds are administered intraperitoneally or orally to groups of seven Lewis rats (≈200 gm) 1 hr prior to phospholipase A2 administration. The test compounds are dissolved in dimethyl sulfoxide for intraperitoneal administration and dissolved or suspended in Labrafil M-1944CS for oral administration. At 0 hr, 5 ug (10 units) of purified phospholipase A2 from Naja naja venom (Sigma Chem. Co.) dissolved in 0.1 mL of pyrogen free saline is injected subplantarly into the right hind paw to elicit the inflammatory response. The volume (in mL) of the right hind paw is measured by immersion of the paw to the level of the lateral malleolus in an aqueous plethysmometer immediately prior to the injection of phospholipase A2 and then at 0.5, 2 and 4 hr after phospholipase A2 injection. The paw edema is calculated by subtracting the zero time reading from the readings taken after injection. The percent change of the edema volume from the vehicle treated control is calculated to determine the activity of the test compound. Statistical analysis of the mean paw edema values of the control versus the treated groups is performed using Student's t-test. Significance of changes from mean value for vehicle-treated animals (*p<0.05, **p<0.01, ***p<0.001, ns/not significant).

[3] = test system: Croton Oil Mouse Ear Edema; assay: Croton Oil Mouse Ear Edema Test; type: in vivo, CD-1 mice; settings: topical, coapplied, 6 hours
Experimental: Twenty five μl of a 1% croton oil solution [dissolved in a mixture of pyridine/water/diethyl ether at a ratio of 5/20/75 (croton oil vehicle)] are applied to the outer side of the right ear of 3-4 week old made CD-1 mice (8 animals per group). The test compounds are dissolved directly in the 1% croton oil solution at various concentrations and coapplied. Control animals receive 25 μl of croton oil vehicle on the right ear. Biopsy punches are removed at 6 hours from the right ear of the animals using a 6 mm skin trephine (Roboz, Washington, D.C.) and the wet weight of the ear punches is determined. The weight of the biopsy punches is a measure of ear inflammation, primarily edema. The data are expressed as percent inhibition relative to control groups.

[4] = read-out: Inhib of HSF-PLA2, % inhibition

| Structure (SMILES) | inhibition at 1 µM [1, 4] | inhibition in vivo at 30 mg/kg [2] | % Inhib of Croton Oil Mouse Ear Edema (1 mg) [3] | IC50 [1] | inhibition at 5 µM ([1]; (5 μM), read-out: Inhib of HSF-PLA2, % inhibition) | % Inhib of PLA2 Rat Paw Edema 2 hr ([2]; (10 mg/kg)) |
| --- | --- | --- | --- | --- | --- | --- |
| CCCCCCCCCCOc1cc(OCCCCCCCCCC)cc(N(CC(=O)O)CC(=O)OCCN(CC)CC)c1.Cl [Example 33, N-(2-Diethylaminoethoxy-2-oxoethyl)-N-[3,5-bis(decyloxy)phenyl]glycine monohydrochloride salt] | -5% | 15% | 25% | – | – | – |
| CCCCCCCCCCCCCCOc1cc(C(=O)OC)cc(N(CC(=O)O)CC(=O)O)c1 [Example 69a, N-(carboxymethyl)-N-[(3-methoxycarbonyl)-5-(tetradecyloxy)phenyl]glycine] | 52% | 12% | 71% | – | – | – |
| CCCCCCCCCCOc1cc(OCCCCCCCCCC)cc(N(CC(N)=O)CC(=O)O)c1.N [Example 32, N-(Carbamoylmethyl)-N-[3,5-bis(decyloxy)phenyl]glycine ammonium salt] | 48% | 23% | 54% | – | – | – |
| CCCCCCCCCCCCCCCCCCOc1cc(OCCO)cc(N(CC(=O)O)CC(=O)O)c1 [Example 58a, N-(carboxymethyl)-N-[3-(2-hydroxyethoxy)-5-(octadecyloxy)phenyl]glycine] | – | 29% | 0% | 200 nM | – | – |
| CCCCCCCCCCCCCCCCCCNC(=O)c1cccc(N(CC(=O)O)CC(=O)O)c1 [Example 42] | – | 38% | 0% | 400 nM | – | – |
| CCCCCCCCCCCCCCCCCCOc1cc(OCC(=O)O)cc(N(CC(=O)O)CC(=O)O)c1 [Example 58c, N-[3-(carboxymethoxy)-5-(octadecyloxy)phenyl]-N-(carboxymethyl)glycine] | – | 39% | 0% | 2800 nM | – | – |
| CCCCCCCCCCCCCCOC(=O)c1cc(C(=O)OCCCCCCCCCCCCCC)cc(N(CC(=O)O)CC(=O)O)c1 [Example 25, N-(Carboxymethyl)-N-[3,5-bis[(tetradecyloxy)carbonyl]phenyl]glycine] | 48% | 17% | 62% | – | – | – |
| CCCCCCCCCCOc1cc(OCCCCCCCCCC)cc(N2CC(=O)OC(=O)C2)c1 [Example 30, 4-[3,5-bis(decyloxy)phenyl]2,6-morpholinedione] | – | 91% | 63% | 470 nM | – | – |
| CCCCCCCCCCCCCCCCCCNC(=O)Nc1cccc(N(CC(=O)O)CC(=O)O)c1 [Example 36e, N-(carboxymethyl)-N-[3-[[(octadecylamino)carbonyl]amino]phenyl]glycine] | – | 30% | 31% | – | 74% | – |
| O=C(O)CN(CC(=O)O)c1cc(OCCCOc2ccccc2-c2ccccc2)cc(OCCCOc2ccccc2-c2ccccc2)c1 [Example 6l] | – | 0% | 30% | 420 nM | – | – |
| CCCCCCCCCC(=O)Oc1ccc(N(CC(=O)O)CC(=O)O)cc1OC(=O)CCCCCCCCC [Example 123, N-(Carboxymethyl)-N-[3,4-bis[(1-oxodecyl)oxy]phenyl]glycine] | – | 4% | 58% | 480 nM | – | – |
| CCCCCCCCCCCCCCCCCCOc1cc(O)cc(N(CC(=O)O)CC(=O)O)c1 [Example 81, N-(Carboxymethyl)-N-[3-hydroxy-5-(octadecyloxy)phenyl]glycine] | – | – | 69% | 230 nM | – | 44% |
| CCCCCCCCCCOc1cc(C(=O)OC)cc(N(CC(=O)O)CC(=O)O)c1 [Example 69c, N-(carboxymethyl)-N-[(3-methoxycarbonyl)-5-(decyloxy)phenyl]glycine] | – | 1% | 78% | – | – | – |
| CCCCCCCCCCCCCCCCCC(=O)Nc1cccc(N(CC(=O)O)CC(=O)O)c1 [Example 46] | – | 44% | 35% | – | – | – |
